We go through ten compounds from PubChem BioAssay (NCI).

Values joined by “and” are separate entries in the source; they are usually repeats but may differ in a detail not shown here. Equal values may be shown once.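 Compound exposure: 48 hours, 5 concentrations, 96-well plates. Abbreviation: GI50, concentration required for 50% inhibition of growth. TGI is the concentration that stops growth completely.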 Some results are limits rather than exact numbers.

Some test systems named below: DU-145 prostate; HCT-116 colon; OVCAR-3 ovarian; RPMI-8226 leukemia; SF-539 CNS; SK-MEL-28 melanoma; SK-MEL-5 melanoma; CCRF-CEM leukemia; SK-MEL-2 melanoma; SNB-75 CNS.
Holding throughout (assay): DTP human tumour cell line panel, 48 h

For `CO[C@@H]1[C@H](N(C)C(=O)c2ccccc2)C[C@@H]2O[C@]1(C)n1c3ccccc3c3c4c(c5c6ccccc6n2c5c31)C(=O)NC4=O`, the GI50 is 6.81 µM with DU-145 prostate; 0.638 µM in the experiment on HCT-116 colon; 6.28 µM with OVCAR-3 ovarian; over 100 µM with RPMI-8226 leukemia; 1.08 µM with SF-539 CNS; over 100 µM in the experiment on SK-MEL-28 melanoma. The GI50 in the experiment with SK-MEL-5 melanoma was 0.797 µM. Moreover, the TGI with DU-145 prostate is over 100 µM; in the experiment on HCT-116 colon it was over 100 µM; in the experiment on OVCAR-3 ovarian it was over 100 µM; in the experiment on RPMI-8226 leukemia it was over 100 µM; in the experiment with SF-539 CNS, 59.8 µM; with SK-MEL-28 melanoma, over 100 µM. The concentration for total growth inhibition (TGI) in the experiment with SK-MEL-5 melanoma was over 100 µM.

For the compound `COC(=O)CC12CC(NC(=O)c3csc([C@@H](C[C@H](C(C)C)N(C)C(=O)[C@@H](NC(=O)[C@H]4CCCCN4C)C(C)C)OC(C)=O)n3)(C1)C2`, the GI50 with CCRF-CEM leukemia was 0.0036 µM and 0.00718 µM; with DU-145 prostate, 0.00352 µM and 0.00825 µM; with HCT-116 colon, 0.00337 µM and 0.00778 µM; in the experiment with OVCAR-3 ovarian it was 0.0029 µM and 0.00333 µM; with RPMI-8226 leukemia, 0.00351 µM and 0.0129 µM; with SF-539 CNS, 0.00289 µM and 0.00759 µM. Besides, the 50% growth inhibitory concentration (GI50) was 0.00441 µM and 0.00955 µM in the experiment with SK-MEL-2 melanoma; 0.00191 µM and 0.00412 µM with SK-MEL-5 melanoma; 0.00265 µM in the experiment on SNB-75 CNS. Further, the TGI with CCRF-CEM leukemia was over 33.3 µM; in the experiment on HCT-116 colon, over 33.3 µM; in the experiment on RPMI-8226 leukemia, over 33.3 µM; with SF-539 CNS, 0.0198 µM and 0.0269 µM; with SK-MEL-2 melanoma, over 33.3 µM; with SK-MEL-5 melanoma it was 0.0487 µM and 0.074 µM.

In the case of `COC(=O)Nc1nc2ccc(C(=O)C3CC3)cc2[nH]1`, the GI50 with CCRF-CEM leukemia was 0.332 µM; in the experiment with DU-145 prostate, 0.256 µM; with HCT-116 colon, 0.438 µM; in the experiment on OVCAR-3 ovarian it was 0.207 µM; with RPMI-8226 leukemia it was 0.219 µM; with SF-539 CNS it was 0.311 µM. In addition, the GI50 in the experiment on SK-MEL-2 melanoma was 3.31 µM; with SK-MEL-28 melanoma it was 0.506 µM; with SK-MEL-5 melanoma, 0.385 µM. The TGI with DU-145 prostate was 1.11 µM; with OVCAR-3 ovarian it was 0.448 µM; with RPMI-8226 leukemia it was 0.696 µM; in the experiment with SF-539 CNS, 3.06 µM; in the experiment with SK-MEL-2 melanoma, over 70.1 µM; in the experiment with SK-MEL-28 melanoma, over 63.7 µM. The total growth inhibition concentration (TGI) in the experiment on SK-MEL-5 melanoma is 6.23 µM.

Take `O=C(O)c1cc(C(=O)C(=O)c2cc(C(=O)O)c(O)c3ccccc23)c2ccccc2c1O`: the TGI in the experiment with DU-145 prostate, in the experiment on HCT-116 colon, in the experiment with OVCAR-3 ovarian, with RPMI-8226 leukemia, in the experiment with SF-539 CNS and in the experiment with SK-MEL-2 melanoma was over 100 µM throughout. Also, the TGI with SK-MEL-28 melanoma, with SK-MEL-5 melanoma and with SNB-75 CNS was over 100 µM in each case.

`Oc1c(CCl)cc(Cl)cc1Cc1cc(Cl)cc(Cc2cc(Cl)cc(CCl)c2O)c1O`: the GI50 in the experiment with DU-145 prostate was 4.28 µM; in the experiment on HCT-116 colon, 2.92 µM; in the experiment with OVCAR-3 ovarian, 3.59 µM; in the experiment on RPMI-8226 leukemia, 3.08 µM; with SF-539 CNS, 4.16 µM; with SK-MEL-2 melanoma, 2.16 µM. For the same compound, the GI50 with SK-MEL-28 melanoma was 3.1 µM; in the experiment on SK-MEL-5 melanoma, 1.91 µM; in the experiment on SNB-75 CNS, 3.95 µM. In addition, the TGI stood at 37.1 µM in the experiment with DU-145 prostate; 10.4 µM in the experiment on HCT-116 colon; 15 µM with OVCAR-3 ovarian; 91.7 µM with RPMI-8226 leukemia; 18.2 µM with SF-539 CNS; 6.82 µM in the experiment on SK-MEL-2 melanoma. For the same compound, the results for the TGI with SK-MEL-28 melanoma, in the experiment with SK-MEL-5 melanoma and in the experiment with SNB-75 CNS were 16.1 µM, 4.19 µM and 80.2 µM, respectively.

With `Fc1ccc(-c2nn3c(COc4ccccc4Cl)nnc3s2)cc1Oc1ccccc1`, the GI50 is over 100 µM in the experiment with CCRF-CEM leukemia; 39 µM in the experiment with DU-145 prostate; 23.2 µM in the experiment with HCT-116 colon; 22.5 µM in the experiment with OVCAR-3 ovarian; 51.1 µM in the experiment with RPMI-8226 leukemia; 32.2 µM with SF-539 CNS. Moreover, the results for the GI50 in the experiment on SK-MEL-28 melanoma, in the experiment on SK-MEL-5 melanoma and with SNB-75 CNS were 54.6 µM, 53.3 µM and 30.7 µM, respectively. In addition, the TGI with CCRF-CEM leukemia was over 100 µM; in the experiment on DU-145 prostate it was over 100 µM; with HCT-116 colon it was 66.1 µM; with OVCAR-3 ovarian, 52.5 µM; in the experiment with RPMI-8226 leukemia, over 100 µM; in the experiment on SF-539 CNS, 92.1 µM. Also, the TGI was over 100 µM in the experiment with SK-MEL-28 melanoma, over 100 µM in the experiment on SK-MEL-5 melanoma and 93.7 µM with SNB-75 CNS.

Regarding `O=C1C2=C(c3ccccc31)C(c1ccccc1Cl)NC(=S)N2` (stereo not given), the TGI in the experiment with CCRF-CEM leukemia, in the experiment with HCT-116 colon, with OVCAR-3 ovarian, in the experiment on RPMI-8226 leukemia, with SF-539 CNS and in the experiment on SK-MEL-2 melanoma was over 100 µM each time. Also, the TGI in the experiment with SK-MEL-28 melanoma was over 100 µM; with SK-MEL-5 melanoma, 46 µM; with SNB-75 CNS, over 100 µM.

Turning to `CN1C(=O)CNS1(=O)=O`, the TGI in the experiment on CCRF-CEM leukemia, in the experiment with HCT-116 colon, with OVCAR-3 ovarian, in the experiment with RPMI-8226 leukemia, with SF-539 CNS and with SK-MEL-2 melanoma was over 100 µM throughout. For the same compound, the TGI with SK-MEL-28 melanoma, with SK-MEL-5 melanoma and with SNB-75 CNS was over 100 µM in each case.

Turning to `Cc1cc(S(=O)(=O)Nc2n[nH]c(-c3ccc(Cl)cc3)c2C#N)c(S)cc1Cl`, the GI50 in the experiment on CCRF-CEM leukemia, in the experiment on DU-145 prostate, in the experiment on OVCAR-3 ovarian, in the experiment on RPMI-8226 leukemia, in the experiment on SF-539 CNS and in the experiment with SK-MEL-2 melanoma was over 100 µM each time. For the same compound, the GI50 with SK-MEL-28 melanoma, with SK-MEL-5 melanoma and in the experiment on SNB-75 CNS was over 100 µM in each case. Also, the TGI in the experiment with CCRF-CEM leukemia, in the experiment on DU-145 prostate, in the experiment on OVCAR-3 ovarian, in the experiment on RPMI-8226 leukemia, in the experiment on SF-539 CNS and in the experiment with SK-MEL-2 melanoma was over 100 µM throughout. Further, the TGI in the experiment on SK-MEL-28 melanoma, in the experiment with SK-MEL-5 melanoma and in the experiment on SNB-75 CNS was over 100 µM in each case.

As for `N#CCC(=O)N/N=C(/C(=O)Nc1ccccc1)C1C(=O)N(c2ccccc2)N=C1N` (stereo not given), the TGI with CCRF-CEM leukemia, in the experiment with HCT-116 colon, with OVCAR-3 ovarian, in the experiment with RPMI-8226 leukemia, in the experiment on SF-539 CNS and with SK-MEL-2 melanoma was over 100 µM in each case. The TGI in the experiment with SK-MEL-28 melanoma, in the experiment on SK-MEL-5 melanoma and in the experiment on SNB-75 CNS was over 100 µM in each case.

As a reminder, the GI50 is the concentration that inhibits growth by half. In general, TGI refers to the concentration giving total growth inhibition.
